Results from patent publication US20230017045A1, “PYRIDINE AND PYRIMIDINE CARBOXYLATE HERBICIDES AND METHODS OF USE THEREOF” (Dow AgroSciences LLC, priority 2017, published 2023).
Where two headings read alike, the source gives them in different places.

System: test plant species
Test: Post-emergent herbicidal activity test (greenhouse, foliar spray, visual growth reduction)
Format: in vivo
Details: 140 g ai/ha, 14 days after application; for pest or weed control at 140 g/ha: post-emergence, 336 h
Procedure: Post-emergent Test: Seeds or nutlets of the desired test plant species were planted in Sun Gro Metro-Mix® 360 planting mixture, which typically has a pH of 6.0 to 6.8 and an organic matter content of about 30 percent, in plastic pots with a surface area of 64 square centimeters. In some aspects, to ensure good germination and healthy plants, a fungicide treatment and/or other chemical or physical treatment was applied. The plants were grown for 7-21 d in a greenhouse with an approximate 15 h photoperiod which was maintained at 23-29° C. during the day and 22-28° C. during the night. Nutrients and water were added on a regular basis and supplemental lighting was provided with overhead metal halide 1000-Watt lamps as necessary. Plants were used for testing when they reached the first or second true leaf stage. A weighed amount, determined by the highest rate to be tested, of each test compound was placed in a 25 mL glass vial and was dissolved in 4 mL of a 97:3 v/v mixture of acetone and DMSO to obtain concentrated stock solutions. […] The concentrated stock solutions obtained were diluted with 20 mL of an aqueous mixture containing acetone, water, isopropyl alcohol, DMSO, […] crop oil concentrate, and X-77 surfactant in a 48.5:39:10:1.5:1.0:0.02 v/v ratio to obtain spray solutions containing the application rate. Compound requirements are based upon a 12 mL application volume at a rate of 187 liters per hectare (L/ha). Formulated compounds were applied to the plant material with an overhead Mandel track sprayer equipped with […] nozzles calibrated to deliver 187 L/ha over an application area of 0.64 square meters at a spray height of 18 inches (43 cm) above the average plant canopy height. Control plants were sprayed in the same manner with the solvent blank. The treated plants and control plants were placed in a greenhouse as described above and watered by subirrigation to prevent wash-off of the test compounds. After 14 d, the condition of the test plants as compared with that of the nontreated and control plants was determined visually and scored on a scale of 0 to 100 percent where 0 corresponds to no injury and 100 corresponds to complete control. In the reporting of the results, Table A: Percent Growth Reduction Conversion Table was used.

[1] = ALOMY: blackgrass (Alopecurus myosuroides), read-out: Visual Growth Reduction (%) 14 Days After Application, ALOMY
[2] = AMARE: redroot pigweed (Amaranthus retroflexus), read-out: Visual Growth Reduction (%) 14 Days After Application, AMARE
[3] = AVEFA: wild oat (Avena fatua), read-out: Visual Growth Reduction (%) 14 Days After Application, AVEFA
[4] = CHEAL: lambsquarters (Chenopodium album), read-out: Visual Growth Reduction (%) 14 Days After Application, CHEAL
[5] = CIRAR: canada thistle (Cirsium arvense), read-out: Visual Growth Reduction (%) 14 Days After Application, CIRAR
[6] = CYPES: yellow nutsedge (Cyperus esculentus), read-out: Visual Growth Reduction (%) 14 Days After Application, CYPES
[7] = DIGSA: crabgrass (Digitaria sanguinalis), read-out: Visual Growth Reduction (%) 14 Days After Application, DIGSA
[8] = ECHCG: barnyardgrass (Echinochloa crus-galli), read-out: Visual Growth Reduction (%) 14 Days After Application, ECHCG
[9] = IPOHE: ivy-leaf morning glory (Ipomoea hederacea), read-out: Visual Growth Reduction (%) 14 Days After Application, IPOHE
[10] = ORYSA: rice (Oryza sativa), read-out: Visual Growth Reduction (%) 14 Days After Application, ORYSA
[11] = SETFA: giant foxtail (Setaria faberi), read-out: Visual Growth Reduction (%) 14 Days After Application, SETFA
[12] = SORVU: grain sorghum (Sorghum vulgare), read-out: Visual Growth Reduction (%) 14 Days After Application, SORVU
[13] = STEME: common chickweed (Stellaria media), read-out: Visual Growth Reduction (%) 14 Days After Application, STEME
[14] = TRZAS: wheat, spring (Triticum aestivum), read-out: Visual Growth Reduction (%) 14 Days After Application, TRZAS
[15] = KCHSC: kochia (Bassia scoparia), read-out: Visual Growth Reduction (%) 14 Days After Application, KCHSC

| SMILES | pest or weed control at 140 g/ha [1] | pest or weed control at 140 g/ha [2] | pest or weed control at 140 g/ha [3] | pest or weed control at 140 g/ha [4] | pest or weed control at 140 g/ha [5] | pest or weed control at 140 g/ha [6] | pest or weed control at 140 g/ha [7] | pest or weed control at 140 g/ha [8] | pest or weed control at 140 g/ha [9] | pest or weed control at 140 g/ha [10] | pest or weed control at 140 g/ha [11] | pest or weed control at 140 g/ha [12] | pest or weed control at 140 g/ha [13] | pest or weed control at 140 g/ha [14] | pest or weed control at 140 g/ha [15] | other results |
| --- | --- | --- | --- | --- | --- | --- | --- | --- | --- | --- | --- | --- | --- | --- | --- | --- |
| COC(=O)c1nc(-c2ccc(Cl)cc2)cc(Cl)c1Cl [F80, Methyl 3,4-dichloro-6-(4-chlorophenyl) picolinate] | 0 to 29% | 60 to 74% | 0 to 29% | 30 to 44% | 0 to 29% | 0 to 29% | 0 to 29% | 0 to 29% | 45 to 59% | 0 to 29% | 0 to 29% | 0 to 29% | 0 to 29% | 0 to 29% | – | – |
| O=C(OCc1ccncc1)c1nc(-c2ccc(C(F)(F)F)cc2Cl)ccc1Cl [F81, Pyridin-4-ylmethyl 3-chloro-6-(2-chloro-4-(trifluoromethyl)phenyl)picolinate] | 60 to 74% | 95 to 100% | 60 to 74% | 75 to 84% | 95 to 100% | 0 to 29% | 95 to 100% | 95 to 100% | 95 to 100% | 60 to 74% | 95 to 100% | 85 to 94% | 0 to 29% | 75 to 84% | 95 to 100% | – |
| COC(=O)c1nc(-c2ccc(Cl)cc2)ccc1Cl [F82, methyl 3-chloro-6-(4-chlorophenyl)picolinate] | 0 to 29% | 95 to 100% | 0 to 29% | 60 to 74% | 75 to 84% | 75 to 84% | 0 to 29% | 0 to 29% | 75 to 84% | 0 to 29% | – | 0 to 29% | 30 to 44% | – | 60 to 74% | – |
| COC(=O)c1nc(-c2ccc(Cl)c([N+](=O)[O-])c2)ccc1Cl [F83, Methyl 3-chloro-6-(4-chloro-3-nitrophenyl) picolinate] | – | – | – | – | – | – | – | – | – | – | – | – | – | – | – | Visual Growth Reduction (%) 14 Days After Application, ALOMY (ALOMY: blackgrass (Alopecurus myosuroides)): G (0-29); Visual Growth Reduction (%) 14 Days After Application, AMARE (AMARE: redroot pigweed (Amaranthus retroflexus)): G (0-29); Visual Growth Reduction (%) 14 Days After Application, AVEFA (AVEFA: wild oat (Avena fatua)): G (0-29); Visual Growth Reduction (%) 14 Days After Application, CHEAL (CHEAL: lambsquarters (Chenopodium album)): G (0-29); Visual Growth Reduction (%) 14 Days After Application, CIRAR (CIRAR: canada thistle (Cirsium arvense)): G (0-29); Visual Growth Reduction (%) 14 Days After Application, CYPES (CYPES: yellow nutsedge (Cyperus esculentus)): G (0-29); Visual Growth Reduction (%) 14 Days After Application, DIGSA (DIGSA: crabgrass (Digitaria sanguinalis)): G (0-29); Visual Growth Reduction (%) 14 Days After Application, ECHCG (ECHCG: barnyardgrass (Echinochloa crus-galli)): G (0-29); Visual Growth Reduction (%) 14 Days After Application, IPOHE (IPOHE: ivy-leaf morning glory (Ipomoea hederacea)): G (0-29); Visual Growth Reduction (%) 14 Days After Application, KCHSC (KCHSC: kochia (Bassia scoparia)): G (0-29); Visual Growth Reduction (%) 14 Days After Application, ORYSA (ORYSA: rice (Oryza sativa)): G (0-29); Visual Growth Reduction (%) 14 Days After Application, SETFA (SETFA: giant foxtail (Setaria faberi)): G (0-29); Visual Growth Reduction (%) 14 Days After Application, SORVU (SORVU: johnsongrass (Sorghum vulgare)): G (0-29); Visual Growth Reduction (%) 14 Days After Application, STEME (STEME: common chickweed (Stellaria media)): G (0-29); Visual Growth Reduction (%) 14 Days After Application, TRZAS (TRZAS: wheat, spring (Triticum aestivum)): G (0-29) |
| O=C(O)c1nc(-c2ccc(C(F)(F)F)nc2)c(Cl)cc1Cl [F84, 3,5-dichloro-6′-(trifluoromethyl)-[2,3′-bipyridine]-6-carboxylic acid] | 0 to 29% | 0 to 29% | 0 to 29% | 45 to 59% | 0 to 29% | 0 to 29% | 30 to 44% | 0 to 29% | 0 to 29% | 0 to 29% | 0 to 29% | 0 to 29% | 0 to 29% | 0 to 29% | 0 to 29% | – |
| COC(=O)c1nc(-c2ccc3c(c2F)OCO3)ccc1Cl [F85, Methyl 3-chloro-6-(4-fluorobenzo[d][1,3]dioxol-5-yl)picolinate] | 0 to 29% | 0 to 29% | 0 to 29% | 75 to 84% | 0 to 29% | 0 to 29% | 0 to 29% | 30 to 44% | 0 to 29% | 0 to 29% | 0 to 29% | 0 to 29% | 0 to 29% | 0 to 29% | 45 to 59% | – |
| COC(=O)c1nc(-c2ccc(C(F)(F)F)nc2)c(O)cc1Cl [F87, methyl 5-chloro-3-hydroxy-6′-(trifluoromethyl)-[2,3′-bipyridine]-6-carboxylate] | 0 to 29% | 0 to 29% | 0 to 29% | 0 to 29% | 0 to 29% | 0 to 29% | 0 to 29% | 0 to 29% | 0 to 29% | 0 to 29% | 0 to 29% | 0 to 29% | 0 to 29% | 0 to 29% | 0 to 29% | – |
| COC(=O)c1nc(-c2c(Cl)cc(C(F)(F)F)cc2Cl)ccc1Cl [F88, Methyl 3-chloro-6-(2,6-dichloro-4-(trifluoromethyl)phenyl)picolinate] | 60 to 74% | 95 to 100% | 0 to 29% | 95 to 100% | 85 to 94% | 0 to 29% | 85 to 94% | 75 to 84% | 75 to 84% | 0 to 29% | 85 to 94% | 85 to 94% | 0 to 29% | 30 to 44% | 45 to 59% | – |
